Measured values: patent US5585492A, “LTA4 Hydrolase inhibitors” (priority 1994, dated 1996)
Like-named read-outs stand apart in the source and are kept apart here.

Key:
[1] = tested on: LTA4 hydrolase; conditions: cited from earlier work
[2] = tested on: LTB4 production in human blood; assay: Inhibition of Calcium Ionophore-Induced LTB4 Production in Human Blood (HWB); type: cell-based; conditions: Homo sapiens, read-out: Inhibition of Calcium Ionophore-Induced LTB4 Production in Human Blood IC50 HWB
[3] = tested on: LTB4 production in mouse blood; assay: Murine Ex Vivo LTB4 Inhibition, calcium ionophore stimulated mouse blood after oral gavage; type: in vivo; conditions: oral gavage, 10 mg/kg, 1 hour
Protocol: Leukotriene A4 hydrolass inhibitor compounds of the present invention were diluted to a predetermined concentration in phosphate buffered saline containing 2% DMSO and 1% Tween 80. The compounds were administered by oral gavage to adult male outbred mice weighing approximately 20-30 gm at a dose of 10 mg/kg body weight. (Compounds given at a dose of 50 mg/kg body weight are designtated in following Table by the symbol, *.) Sixty (60) minutes after administration of an LTA4 inhibitor compound of the invention, blood was collected (into heparin-containing tubes) from the retroorbital sinus. […] The mixture was incubated for 10 minutes at 37° C. in a humidified incubator. The reaction was terminated by centrifugation (833 g, 10 minutes at 4° C.). Supernatants were analyzed for LTB4 and thromboxane by commercially available enzyme-linked immunoassays [Caymen Chemical Co., Ann Arbor, Mich.] in accordance with the manufacturer's instructions. The percent inhibition was determined by comparison to animals treated identically except that the solution admininstered by oral gavage was devoid of inhibitor compound.

[4] = biological target: T1, recombinant human LTA4 hydrolase (Homo sapiens, UniProt P09960); assay: Recombinant Human LTA4 Hydrolase Assay for LTA4 Hydrolase Inhibitor Activity (LTB4 by enzyme-linked immunoassay); type: biochemical; conditions: read-out: Recombinant Human LTA4 Hydrolase Assay IC50 LTA4H
T1 construct: made in house; host or cells: Spodoptera frugiperda Sf-9 cells, baculovirus (AcNPV) expression vector
T1 sequence (P09960 1-611): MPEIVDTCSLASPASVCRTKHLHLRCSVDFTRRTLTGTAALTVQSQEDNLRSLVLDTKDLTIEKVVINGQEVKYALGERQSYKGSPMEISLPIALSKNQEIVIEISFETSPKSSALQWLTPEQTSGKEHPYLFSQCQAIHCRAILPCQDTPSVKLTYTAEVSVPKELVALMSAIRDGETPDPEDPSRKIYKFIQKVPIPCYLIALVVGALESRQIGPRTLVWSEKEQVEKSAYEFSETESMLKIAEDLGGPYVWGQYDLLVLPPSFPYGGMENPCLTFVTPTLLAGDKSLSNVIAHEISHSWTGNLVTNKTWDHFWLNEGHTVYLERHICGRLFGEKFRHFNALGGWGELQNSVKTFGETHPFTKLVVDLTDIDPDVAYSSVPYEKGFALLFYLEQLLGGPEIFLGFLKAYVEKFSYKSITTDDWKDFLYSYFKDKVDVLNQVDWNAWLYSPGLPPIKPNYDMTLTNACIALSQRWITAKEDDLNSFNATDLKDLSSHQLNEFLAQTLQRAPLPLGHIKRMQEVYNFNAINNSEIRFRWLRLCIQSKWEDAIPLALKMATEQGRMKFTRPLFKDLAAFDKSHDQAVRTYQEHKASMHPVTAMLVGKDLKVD
Protocol: Compounds of the present invention were tested for LTA4 hydrolase inhibitor activity against recombinant human LTA4 hydrolase (rhLTA4 H). […] Briefly, LTA4 hydrolase encoding DNA was amplified by polymerase chain reaction using a pair of oligonucleotide primers based on the nucleotide sequence from the 5'-end, and the complement of the 3'-end, of the coding region of the LTA4 hydrolase gene, the nucleotide sequence of which gene is known. […] A λgtll human placental cDNA library (Clonetech, Palo Alto, Calif.) provided the nucleic acid template.
One or more predetermined amounts of a compound of the invention were incubated in assay buffer (0.1M potassium phosphate, 5 mg/ml fatty acid free BSA, 10% DMSO, pH 7.4) for 10 minutes at room temperature with 250 ng of recombinant hLT4 H to allow binding, if any, between the enzyme and inhibitor. The stock enzyme solution was 1 mg/ml LTA4 hydrolase, 50 mM Tris, pH 8.0, 150 mM NaCl, 2.5 mM beta-mercaptoethanol, 50% glycerol. […] LTA4 (i.e., substrate) was prepared from the methyl ester of LTA4 (Biomol, Inc., Plymouth Meeting, Pa.) by treating the methyl ester with 30 molar equivalents of LiOH at room temperature for 18 hours. The LTA4 substrate in its free acid form was kept frozen at -80° C. until needed. […] Each reaction was carried out at room temperature for 10 minutes. The reaction was stopped by diluting 25 μl of the reaction mixture with 500 μl of the assay buffer without DMSO. LTB4 was quantified in the diluted sample by a commercially available enzyme-linked immunoassay [Caymen Chemical Co., Ann Arbor, Mich.] using the method recommended in the manufacturer's instructions and compared to the amount of LTB4 produced in a negative control (i.e., essentially identical conditions except without addition of an inhibitor compound). The IC50 was routinely calculated from the data produced.

[5] = human whole blood, A23187 20 mcg/ml

Structure (SMILES) | LTA4 hydrolase inhibitory activity (in words) [1] | IC50 [2] [nM] | Murine Ex Vivo LTB4 Inhibition % I LTB4 at 1 hour after administration of 10 mg/kg [3] [%] | IC50 [4] [nM] | IC50 [2, 5] [nM]
C[C@H](CS)C(=O)N1CCC[C@H]1C(=O)O [captopril] | exhibit LTA4 hydrolase inhibitory activity |  |  |  | 
c1ccc(Cc2ccc(OCCn3cccc4ncnc3-4)cc2)cc1 [Example 338A] |  | 690 | 22 | 140 | 
COC(=O)C1CC2CCC(C1)N2CCOc1ccc(Cc2ccccc2)cc1 (centres unmarked) [Example 278] |  | 247 | 95 | 22 | 
CC(C)C[C@H](NC(=O)[C@@H](O)[C@H](N)Cc1ccccc1)C(=O)O [bestatin] | exhibit LTA4 hydrolase inhibitory activity |  |  |  | 
CCOC(=O)CNCCCCOc1ccc(Cc2ccccc2)cc1 [Example 320] |  |  | 85 | 14 | 354
CC(=O)N1CCN(CCOc2ccc(Cc3ccccc3)cc2)CC1 [Example 277] |  |  | 42 | 520 | 546
NC(=O)N1CCN(CCOc2ccc(Cc3ccccc3)cc2)CC1 [Example 459] |  |  | 44 | 1110 | 2400
c1ccc(Cc2ccc(OCCN3CCCC3)cc2)cc1 [Example 45] |  | 116 | 35 | 26 | 
Cn1c(=O)c2c(ncn2CCOc2ccc(Cc3ccccc3)cc2)n(C)c1=O [Example 353] |  |  | 0 | 73 | 260
Fc1cc(OCCN2CCCC2)ccc1Cc1ccccc1 [Example 116] |  |  | 18 | 53 | 1090
CCOC(=O)CCNCCCCOc1ccc(Cc2ccccc2)cc1 [Example 272] |  |  | 97 | 7 | 76
Nc1ccc2c(c1)ncn2CCOc1ccc(Cc2ccccc2)cc1 [Example 362A] |  |  | 28 | 5070 | 3350
